Assay results as given in ChEMBL document CHEMBL1201862, “PubChem BioAssay data set” (2004).
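Tested at 5 concentrations; 48 h exposure; 96-well plates; endpoints linearly interpolated, else capped at highest concentration. Abbreviation: GI50, concentration required for 50% inhibition of growth.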 Active and inactive are the calls of the source. No stated cut-off is given here; in the data, active = GI50 up to about 1.1 µM and inactive = higher. Where a SMILES comes first, the peptide text is derived from it. [ ]: non-standard residue; d: D form. Phe(4-Cl) = N[CH](Cc1ccc(Cl)cc1)C(=O)O

Key:
Test in all cases: DTP human tumour cell line panel, 48 h
KM12 = test system: KM12
ACHN = test system: ACHN
OVCAR-8 = test system: OVCAR-8
HCT-116 = test system: HCT-116
RPMI-8226 = test system: RPMI-8226
SN12C = test system: SN12C
M19-MEL = test system: M19-MEL
TK-10 = test system: TK-10
UO-31 = test system: UO-31
M14 = test system: M14
HT-29 = test system: HT-29
UACC-257 = test system: UACC-257
NCI-H226 = test system: NCI-H226
HL-60 = test system: HL-60
MOLT-4 = test system: MOLT-4
HOP-62 = test system: HOP-62
NCI/ADR-RES = test system: NCI/ADR-RES
SR = test system: SR
MDA-N = test system: MDA-N
PC-3 = test system: PC-3

Measured: GI50

CC1=NN(C(=O)c2ccc(Cl)cc2)C(=O)/C1=C/c1ccc(O)cc1
inactive: KM12 > 100 µM | ACHN > 100 µM | OVCAR-8 > 100 µM | HCT-116 > 100 µM | RPMI-8226 > 100 µM | SN12C > 100 µM | M19-MEL > 100 µM | TK-10 > 100 µM | UO-31 > 100 µM | M14 > 100 µM | HT-29 > 100 µM | UACC-257 > 100 µM | NCI-H226 > 100 µM | HL-60 > 100 µM | MOLT-4 > 100 µM | HOP-62 > 100 µM

Cc1[nH]c2ncn(N)c(=N)c2c1Cc1ccccc1
inactive: KM12 > 100 µM | ACHN > 100 µM | OVCAR-8 > 100 µM | HCT-116 > 100 µM | RPMI-8226 > 100 µM | NCI/ADR-RES 82 µM | SN12C > 100 µM | TK-10 > 100 µM | UO-31 26.1 µM | SR > 100 µM | M14 > 100 µM | MDA-N 35.3 µM | HT-29 67.9 µM | PC-3 30.6 µM | UACC-257 > 100 µM | NCI-H226 > 100 µM | HL-60 17.8 µM | MOLT-4 > 100 µM | HOP-62 47.2 µM

COC(=O)CCC(NC(=S)N/N=C/c1ccco1)C(=O)OC (configuration not stated)
inactive: KM12 > 100 µM | ACHN > 100 µM | OVCAR-8 > 100 µM | HCT-116 > 100 µM | SN12C > 100 µM | M19-MEL > 100 µM | TK-10 > 100 µM | UO-31 > 100 µM | SR > 100 µM | M14 > 100 µM | HT-29 > 100 µM | UACC-257 > 100 µM | NCI-H226 > 100 µM | HL-60 > 100 µM | HOP-62 > 100 µM

O=c1c2ccc(Br)cc2nc(-c2ccccc2)n1NC1OC(CO)C(O)C(O)C1O (configuration not stated)
inactive: KM12 > 100 µM | ACHN > 100 µM | OVCAR-8 > 100 µM | HCT-116 > 100 µM | RPMI-8226 > 100 µM | SN12C > 100 µM | M19-MEL > 100 µM | TK-10 > 100 µM | UO-31 > 100 µM | M14 > 100 µM | HT-29 > 100 µM | UACC-257 > 100 µM | NCI-H226 > 100 µM | HL-60 > 100 µM | MOLT-4 57.3 µM | HOP-62 59.3 µM

CCCCCC1C2C(=O)NC(=O)C1C(=O)NC2=O (configuration not stated)
inactive: KM12 > 100 µM | ACHN > 100 µM | OVCAR-8 > 100 µM | RPMI-8226 > 100 µM | SN12C > 100 µM | M19-MEL > 100 µM | TK-10 > 100 µM | UO-31 > 100 µM | M14 > 100 µM | HT-29 > 100 µM | UACC-257 > 100 µM | NCI-H226 > 100 µM | HL-60 > 100 µM | MOLT-4 > 100 µM | HOP-62 > 100 µM

O=c1[nH]c(=O)n2n1C1C=CC2CC1
inactive: KM12 > 100 µM | ACHN > 100 µM | OVCAR-8 > 100 µM | HCT-116 > 100 µM | RPMI-8226 > 100 µM | NCI/ADR-RES > 100 µM | SN12C > 100 µM | TK-10 > 100 µM | UO-31 > 100 µM | SR > 100 µM | M14 > 100 µM | MDA-N > 100 µM | HT-29 > 100 µM | PC-3 > 100 µM | UACC-257 > 100 µM | NCI-H226 > 100 µM | HL-60 > 100 µM | MOLT-4 > 100 µM | HOP-62 > 100 µM

S=C1Nc2cnc3ccccc3c2SC1c1ccccc1 (configuration not stated)
inactive: KM12 > 100 µM | ACHN > 100 µM | OVCAR-8 > 100 µM | HCT-116 > 100 µM | RPMI-8226 > 100 µM | NCI/ADR-RES > 100 µM | SN12C > 100 µM | TK-10 > 100 µM | UO-31 > 100 µM | SR > 100 µM | M14 > 100 µM | MDA-N > 100 µM | HT-29 > 100 µM | PC-3 > 100 µM | UACC-257 > 100 µM | NCI-H226 > 100 µM | HL-60 > 100 µM | MOLT-4 > 100 µM | HOP-62 42.9 µM

CC12CCc3ccccc3C1=NNC(=O)C2 (configuration not stated)
inactive: KM12 > 100 µM | ACHN > 100 µM | OVCAR-8 > 100 µM | HCT-116 > 100 µM | RPMI-8226 > 100 µM | SN12C > 100 µM | M19-MEL > 100 µM | TK-10 > 100 µM | UO-31 > 100 µM | M14 > 100 µM | HT-29 > 100 µM | UACC-257 > 100 µM | NCI-H226 > 100 µM | HL-60 82 µM | MOLT-4 > 100 µM | HOP-62 > 100 µM

CCCCCCCC1(c2ccc(N)cc2)CCC(=O)NC1=O (configuration not stated)
inactive: KM12 48.4 µM | ACHN 18.7 µM | OVCAR-8 35.8 µM | RPMI-8226 19.1 µM | SN12C 30 µM | M19-MEL 37.8 µM | TK-10 49.7 µM | UO-31 20.5 µM | M14 32.4 µM | UACC-257 32.9 µM | HL-60 17 µM | MOLT-4 23.8 µM | HOP-62 32.9 µM

COC(=N)c1csc(C2OC(CO)C(O)C2O)n1 (configuration not stated)
inactive: KM12 > 100 µM | ACHN > 100 µM | OVCAR-8 > 100 µM | HCT-116 > 100 µM | RPMI-8226 > 100 µM | SN12C > 100 µM | M19-MEL > 100 µM | TK-10 > 100 µM | UO-31 50.7 µM | M14 > 100 µM | HT-29 > 100 µM | UACC-257 > 100 µM | NCI-H226 > 100 µM | HL-60 38.5 µM | MOLT-4 61.9 µM | HOP-62 > 100 µM

CC(O)C(NC(=O)C(Cc1ccccc1)NC(=O)C(NC(=O)C(CCCCN)NC(=O)C(Cc1c[nH]c2ccccc12)NC(=O)C(Cc1ccc(O)cc1)NC(=O)C(Cc1ccc(Cl)cc1)NC(=O)C(N)Cc1ccccc1)C(C)O)C(N)=O (configuration not stated) (H-F[Phe(4-Cl)]YWKTFT-NH2; configuration not given here)
inactive: KM12 13.5 µM | ACHN 21.9 µM | OVCAR-8 23.9 µM | HCT-116 18.9 µM | RPMI-8226 14 µM | SN12C 41.8 µM | M19-MEL 21.5 µM | UO-31 19 µM | M14 22.7 µM | HT-29 23.4 µM | UACC-257 > 10 µM | HL-60 15.3 µM | MOLT-4 25.9 µM | HOP-62 20.5 µM

O=C1c2ccc(O)cc2OC(c2cc(O)c(O)c(O)c2)C1O (configuration not stated) [DIHYDROBINETIN]
inactive: KM12 26.7 µM | ACHN 25.8 µM | OVCAR-8 22 µM | HCT-116 22 µM | RPMI-8226 17.8 µM | NCI/ADR-RES 25.1 µM | SN12C 20.4 µM | TK-10 23.6 µM | UO-31 67.8 µM | SR 20.5 µM | M14 > 100 µM | MDA-N 18.4 µM | HT-29 23.4 µM | PC-3 > 100 µM | UACC-257 34.8 µM | NCI-H226 39.1 µM | HL-60 19.9 µM | MOLT-4 19.1 µM | HOP-62 35.5 µM
